Test results published in patent US20240269158A1, “THERAPEUTIC AGENTS AND METHODS FOR TREATMENT OF BARTONELLOSIS” (THE ADMINISTRATORS OF THE TULANE EDUCATIONAL FUND, priority 2021, published 2024).
Where two headings read alike, the source gives them in different places.

Assays:
[1] = test system: intracellular B. henselae in DH82 cells; assay: DH82 cell-based MBC assay (coculture); set-up: species or system Bartonella henselae (canine DH82 cells); conditions: Bartonella henselae; B. henselae; DH82 cell-based assay; 96 hours; read-out: MBC
Description: DH82 are a canine cell line having a macrophage-like morphology. Cells were initially cultured in T75-Flasks (Corning, 430641U) until confluency was reached and were split at a ratio of 1:4 for every 2-3 days. Cells were then seeded into either 24-well cell culture plates (Corning, 3526) for coculture assay or 8-well chamber slides (Millipore #PEGGS0816) for immunofluorescence assays. A total of 50,000 cells were seeded into each well of a 24-well plate or per chamber of an 8-well chamber slide with EMEM with 15% FBS and incubated for 24-48 hours before infections.
(§1) Therapeutic agent stocks were prepared in the following solvents: 10 mg/ml of ceftriaxone (USP), doxycycline (Fisher scientific, D9891-1G), gentamicin (Fisher scientific, 1405-41-0), ampicillin (Fisher scientific, 69-52-3) and azlocillin (Flightpath) in sterile cell culture grade water, whereas 5 mg/ml of azithromycin (Sigma, PZ0007-5MG) was dissolved in sterile cell culture grade DMSO. Antibiotics were then aliquoted and stored at either −80° C. or −20° C. until further use. On the day of assay, these stock concentrations were diluted to 1 mg/ml and 100 μg/ml in the respected bacterial culture media for MIC and cell-free, liquid culture MBC assays. For the DH82 cell-based MBC assay, antibiotics were diluted in EMEM media supplemented with 15% heat inactivated FBS.
Bacteria (B. henselae) that were grown in Grace's insect media, were centrifuged at 7000 rpm for 10 min. The supernatant was removed and washed with 1×PBS for three times. After the washes, pellet was resuspended in EMEM media supplemented with 15% heat inactivated FBS. This bacterial suspension was then added to DH82 cells at a multiplicity of infection (MOI) of 1:50 and incubated for 2 hours. After 2 hours, unbound bacteria were removed by washing the cells with only EMEM media 3 times each 15 min wash. Cells were then incubated with EMEM+15% FBS media at 37° C. with 5% CO2 for 48 hours.
After 48 hrs of incubation, the media was removed from the cells and the therapeutic agents that were diluted in EMEM+15% FBS was added. Each therapeutic agent was diluted at 11 different concentrations (16, 8, 4, 2, 1, 0.5, 0.25, 0.125, 0.062, 0.031, 0.0156 μg/ml), as described above and incubated for 96 hours. […] The bactericidal activity of the therapeutic agents were then evaluated by plating the lysed cells on blood agar plates. Briefly, infected DH82 cells were initially washed for 30 min twice to remove the antibiotics that were added. Later, cells were osmotically lysed by adding 1 ml of sterile ice-cold distilled water and incubated for 5 min on ice. The lysed cells were then plated onto blood agar plates and incubated at 37° C. with 5% CO2 for about 10 days to evaluate the growth of viable B. henselae. This experiment was conducted in duplicates and repeated twice with all 6 antibiotics including 11 different concentrations. The untreated infected cells were used as a positive control and untreated uninfected cells served as a negative control. The CFU counts are presented as average±standard deviation.
To evaluate the bactericidal activity and to determine if these antibiotics could penetrate the eukaryotic […], a new DH82 cell-based coculture system was utilized. […] Uninfected cells stained with primary rabbit B. henselaehyperimmunized polyclonal (primary) and goat anti-rabbit IgG Alexa fluor 594 (secondary) antibodies were used as a negative control. As an isotype control, DH82 cells infected with B. henselae and incubated with primary rabbit IgG were used.

[2] = test system: B. vinsonii; assay: MIC assay in liquid culture media (OD600); assay type: cell-based, B. vinsonii subsp. berkhoffii; conditions: Grace's insect media, read-out: MIC
Description: (§2) The B. henselae strains used were San Antonio 2, 267HO04, a human clinical isolate and B. vinsonii subsp. berkhoffii. Both the bacteria were initially grown on tryptic soy agar (TSA) supplemented with 5% defibrinated sheep blood plates that were either pre-made (Remel, R01198) or homemade, in a humidified atmosphere at 37° C. with 5% CO2 for 7 days. For the preparation of liquid cultures, an individual well-grown colony from the plate was resuspended in 15 ml Falcon tubes containing 3 mL of either Schneider's insect media supplemented with 10% FBS, or Grace's insect media (Gibco, 11605-094) supplemented with 10% FBS, or BAPGM serum-free liquid media. The cultures grew for 7 more days in the atmosphere as above without shaking. The number of viable bacteria was determined by either plating serial dilutions of the culture on plates for CFU or by live/dead staining. Before every experiment, bacteria were mixed well and passed through 22-gauge needle to break large clumps of bacteria.
(§3) Optical density (OD) of 7-day old bacterial liquid culture that was grown from an individual colony was measured using a spectrophotometer (Bio-Rad, SmartSpec 300, 170-2501). Bacterial culture was then diluted down to an OD of 0.1 ? 3×10^8 cfu/ml with the respective media.
(§4) To determine the MIC of the antibiotics and for the visualization of the bacterial growth, a clear 96-well plate was used. Into each well of a 96-well plate, 50 μl of the 0.1 OD bacterial culture and 50 μl of the liquid media containing antibiotics were added to the wells bringing the total volume to 100 μl of 0.05 OD bacteria (CFU ? 1.5×10^7) in each well. Wells containing only bacteria with solvent used in the dilution of the antibiotics served as a positive control to verify the growth of bacteria. As a negative control, wells containing only media and solvents were used. Each concentration of diluted antibiotic was run in 4 replicates to minimize the error rate. The 96-well plate was covered with the lid and incubated at 37° C. with 5% CO2. OD of the culture was read after 48 hrs and 96 hrs using a hybrid multi-mode microplate reader (Biotek, Synergy H4 hybrid reader) at OD600. The assay was repeated three times.
as §1
(§5) The determination of susceptibility to therapeutic agents was performed in liquid culture media. Six different therapeutic agents were tested with multiple different concentrations against B. henselae and B. vinsonii. Therapeutic agent concentrations tested were as follows: Ceftriaxone 0.001, 0.01, 0.1, 0.3, 0.5, 1, 2, and 5 μg/ml; doxycycline 0.001, 0.01, 0.1, 0.3, 0.5, 1, 2, 5, and 10 μg/ml, gentamicin: 0.01, 0.1, 0.3, 0.5, 1, 2, 4, 8, and 16 μg/ml, and azithromycin: 0.001, 0.005, 0.02, 0.1, 0.3, 0.5, 1, 2, 5, and 10 μg/ml, were tested based on previous antibiotic susceptibility studies. The following azlocillin dilutions were included: 0.001, 0.005, 0.01, 0.02, 0.5, 1, 2, and 5 μg/ml. The ampicillin dilutions included were as follows: 0.001, 0.005, 0.01, 0.02, 0.5, 1, 2, 4, and 8 μg/ml. Both the species of Bartonella were susceptible to all the antibiotics that were used in BAPGM and Grace's culture liquid mediums. […]

[3] = test system: B. henselae; assay: Cell-free, liquid culture MBC assay; assay type: cell-based, Bartonella henselae; conditions: Bartonella henselae, 96 hrs, plated on blood agar, read-out: MBC
Description: as §2
(§6) Briefly, the bacterial culture that was treated with therapeutic agents for 96 hrs was collected into a 1.5 ml microcentrifuge tubes and centrifuged at 7000 rpm for 10 min. The supernatant was removed, and the bacterial pellet was washed with 1×PBS twice. The bacterial pellet was then resuspended in 100 μL of 1×PBS, plated onto blood agar plates and incubated at 37° C. with 5% CO2 for about 14 days. This assay was repeated three times with all the 6 different antibiotics (azlocillin, azithromycin, ceftriaxone, doxycycline, gentamicin and ampicillin) and at different concentrations.
as §1
For this assay, both B. henselae and B. vinsonii were grown in Grace's insect media and were tested against all of the 6 antibiotics (ceftriaxone, doxycycline, gentamicin, azithromycin, azlocillin, ampicillin).

[4] = test system: B. vinsonii; assay: Cell-free, liquid culture MBC assay; assay type: cell-based, B. vinsonii subsp. berkhoffii; conditions: 96 hrs, plated on blood agar, read-out: MBC
Description: as §2, §6, §1
(§7) For this assay, both B. henselae and B. vinsonii were grown in Grace's insect media and were tested against all of the 6 antibiotics (ceftriaxone, doxycycline, gentamicin, azithromycin, azlocillin, ampicillin). […] However, ceftriaxone, gentamicin, azithromycin, and azlocillin were all bactericidal and completely eliminated the growth at concentrations below 10 µg/ml. Table 2 provides comparison of MBCs for B. henselae and B. vinsonii strains in cell-free liquid culture medium determined by incubating the bacteria with antibiotics in a 96-well plate and plating on tryptic soy agar supplemented with 5% sheep blood. Additionally, MBC for B. henselae determined by DH82 cell-based assay (right column) is provided.

[5] = test system: B. henselae; assay: MIC assay in liquid culture media (OD600); assay type: cell-based, Bartonella henselae; conditions: Bartonella henselae, read-out: MIC
Description: as §2, §3, §4, §1, §5

[6] = test system: B. henselae and B. vinsonii; assay: Cell-free MBC assay, summary over both species; assay type: cell-based, Bartonella; conditions: both species; Grace's insect media
Description: as §6, §7

[7] = test system: B. henselae; conditions: cited from earlier work
[8] = test system: B. henselae; conditions: E-test methodology or agar dilution method; cited from earlier work

C[C@H]1c2cccc(O)c2C(=O)C2=C(O)[C@]3(O)C(=O)C(C(N)=O)=C(O)[C@@H](N(C)C)[C@@H]3[C@@H](O)[C@@H]21 [Doxycycline, doxycycline]
MBC [1]: > 16 µg/mL | MIC [2]: 0.01 to 0.1 µg/mL | MBC [3]: > 10 µg/mL | MBC [4]: > 10 µg/mL | MIC ([5]; BAPGM): 0.01 to 0.1 µg/mL | MIC ([5]; Grace's insect media): 0.01 to 0.1 µg/mL | MIC ([5]; Schneider's insect medium): > 0.3 µg/mL | concentration that did not completely inhibit the growth of bacteria [6]: > 10 µg/mL

O=C(O)c1cn(C2CC2)c2cc(N3CCNCC3)c(F)cc2c1=O [ciprofloxacin]
activity against growing bacterial culture [7]: effective | activity against stationary phase B. henselae [7]: very poor activity

CO[C@H]1/C=C/O[C@@]2(C)Oc3c(C)c(O)c4c(O)c(c(/C=N/N5CCN(C)CC5)c(O)c4c3C2=O)NC(=O)/C(C)=C\C=C\[C@H](C)[C@H](O)[C@@H](C)[C@@H](O)[C@@H](C)[C@H](OC(C)=O)[C@@H]1C [rifampin]
inhibition in the growth of B. henselae in vitro [8]: Inhibition in the growth | activity against growing bacterial culture [7]: effective | activity against stationary phase B. henselae [7]: very poor activity

CC[C@H]1OC(=O)[C@H](C)[C@@H](O[C@H]2C[C@@](C)(OC)[C@@H](O)[C@H](C)O2)[C@H](C)[C@@H](O[C@@H]2O[C@H](C)C[C@H](N(C)C)[C@H]2O)[C@](C)(O)C[C@@H](C)C(=O)[C@H](C)[C@@H](O)[C@]1(C)O [crythromycin]
activity against growing bacterial culture [7]: effective | activity against stationary phase B. henselae [7]: very poor activity

CC1(C)S[C@@H]2[C@H](NC(=O)[C@H](N)c3ccccc3)C(=O)N2[C@H]1C(=O)O [Ampicillin, ampicillin]
MBC [1]: > 16 µg/mL | MIC [2]: 0.01 to 0.02 µg/mL | MBC [3]: > 8 µg/mL | MBC [4]: > 8 µg/mL | MIC ([5]; Grace's insect media): 0.02 to 0.1 µg/mL | concentration that did not completely inhibit the growth of bacteria [6]: > 8 µg/mL
